ChEMBL document CHEMBL5338823, “Discovery of Novel 5,6-Dihydro-1,2,4-triazine Derivatives as Efficacious Glucagon-Like Peptide-1 Receptor Agonists” (J Med Chem, 2023)
Active and inactive are the calls of the source. The calls are words filed in the database; no cut-off is given here.

Assays:
[1] = target: T1, Gastric inhibitory polypeptide receptor (Homo sapiens) (UniProt P48546); assay: Agonist activity at GIPR (unknown origin) expressed in HEK293 cells assessed as effect on intracellular cAMP accumulation incubated for 30 mins by LANCA ultra cAMP assay; assay type: functional, cell-based
T1 sequence (whole entry): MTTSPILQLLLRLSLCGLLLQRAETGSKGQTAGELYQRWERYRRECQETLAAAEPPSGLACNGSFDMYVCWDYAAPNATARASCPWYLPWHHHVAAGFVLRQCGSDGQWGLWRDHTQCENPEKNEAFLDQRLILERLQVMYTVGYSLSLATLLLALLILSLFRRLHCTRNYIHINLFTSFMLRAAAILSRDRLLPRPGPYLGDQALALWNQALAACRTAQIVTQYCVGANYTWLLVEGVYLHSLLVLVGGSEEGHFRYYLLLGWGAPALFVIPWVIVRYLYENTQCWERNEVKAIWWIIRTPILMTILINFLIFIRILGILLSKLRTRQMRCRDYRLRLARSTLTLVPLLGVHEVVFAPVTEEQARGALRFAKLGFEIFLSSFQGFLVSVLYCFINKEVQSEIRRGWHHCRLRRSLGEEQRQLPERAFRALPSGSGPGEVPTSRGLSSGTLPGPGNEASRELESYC

[2] = Stability in rat liver microsomes assessed as half-life at 1 uM measured upto 60 mins in the presence of NADPH by LC-MS/MS analysis; assay type: ADME, Microsome
[3] = target: Glucagon receptor (Homo sapiens) (UniProt P47871); assay: Agonist activity at GCGR (unknown origin) expressed in HEK293 cells assessed as effect on intracellular cAMP accumulation incubated for 30 mins by LANCA ultra cAMP assay; assay type: functional, cell-based
[4] = Stability in mouse liver microsomes assessed as intrinsic clearance at 1 uM measured upto 60 mins in the presence of NADPH by LC-MS/MS analysis; assay type: ADME, Microsome; settings: 1 h
[5] = target: T2, Glucagon-like peptide 1 receptor (Homo sapiens, UniProt P43220); assay: Partial agonist activity at N-terminal HA-tagged human GLP-1R expressed in HEK293 cells co-expressing Smbit-beta-arrestin 1/2 and GLP-1R-LgBit assessed as beta-arrestin-1 recruitment measured after 5 mins by bioluminescence based NanoBiT assay; assay type: functional, cell-based
[6] = Stability in rat liver microsomes assessed as intrinsic clearance at 1 uM measured upto 60 mins in the presence of NADPH by LC-MS/MS analysis; assay type: ADME, Microsome; settings: 1 h
[7] = Stability in mouse liver microsomes assessed as half-life at 1 uM measured upto 60 mins in the presence of NADPH by LC-MS/MS analysis; assay type: ADME, Microsome
Mus musculus [8] = assay: In vivo agonist activity at GLP-1R in C57BL/6J mouse with human GLP-1R knock-in assessed as reduction in blood glucose level at 1 mg/kg, po pre-treated with compound for 1 hrs followed by glucose administration for 3 hrs and further treated with second glucose dose and measured upto 270 mins by Oral Glucose Tolerance Test; assay type: functional, organism-based; settings: time <= 330.0 min
[9] = Drug concentration in C57BL/6J mouse plasma at 5 mg/kg, po measured after 4 hrs by LC-MS/MS analysis; assay type: ADME, organism-based
[10] = target: T2, Glucagon-like peptide 1 receptor; assay: Potency index, ratio of danuglipron EC50 to test compound EC50 for agonist activity at N-terminal HA-tagged human GLP-1R expressed in HEK293 cells assessed as change in intracellular calcium level by Fluo-4 AM dye based calcium mobilization assay; assay type: functional, cell-based
[11] = target: Voltage-gated inwardly rectifying potassium channel KCNH2 (Homo sapiens, UniProt Q12809); assay: Inhibition of hERG
[12] = AUClast in Sprague-Dawley rat at 5 mg/kg, po measured upto 24 hrs by LC-MS/MS analysis; assay type: ADME, organism-based; design: dose 5 mg/kg, time < 24 hrs, route po; settings: in vivo
[13] = Stability in human liver microsomes assessed as half-life at 1 uM measured upto 60 mins in the presence of NADPH by LC-MS/MS analysis; assay type: ADME, Microsome
[14] = target: T2, Glucagon-like peptide 1 receptor; assay: Agonist activity at N-terminal HA-tagged human GLP-1R expressed in HEK293 cells assessed as effect on intracellular cAMP accumulation incubated for 30 mins by LANCA ultra cAMP assay; assay type: functional, cell-based
[15] = target: T2, Glucagon-like peptide 1 receptor; assay: Potency index, ratio of danuglipron EC50 to test compound EC50 for partial agonist activity at N-terminal HA-tagged human GLP-1R expressed in HEK293 cells co-expressing Smbit-beta-arrestin 1/2 and GLP-1R-LgBit assessed as beta-arrestin-1 recruitment measured after 5 mins by bioluminescence based NanoBiT assay; assay type: functional, cell-based
Mus musculus [16] = assay: In vivo agonist activity at GLP-1R in C57BL/6J mouse with human GLP-1R knock-in assessed as reduction in food intake at 30 mg/kg, sc measured after 2.5 to 12 hrs in dark cycle; assay type: functional, organism-based; settings: time 2.5-12 hrs
[17] = Drug concentration in C57BL/6J mouse plasma at 5 mg/kg, po measured after 1 hrs by LC-MS/MS analysis; assay type: ADME, organism-based
hERG (KCNH2) = hERG (KCNH2) (Homo sapiens, UniProt Q12809); assay: Inhibition of hERG at 40 uM relative to control
[18] = target: T2, Glucagon-like peptide 1 receptor; assay: Agonist activity at N-terminal HA-tagged human GLP-1R expressed in HEK293 cells assessed as change in intracellular calcium level by Fluo-4 AM dye based calcium mobilization assay; assay type: functional, cell-based
[19] = target: T2, Glucagon-like peptide 1 receptor; assay: Potency index, ratio of danuglipron EC50 to test compound EC50 for partial agonist activity at N-terminal HA-tagged human GLP-1R expressed in HEK293 cells co-expressing Smbit-beta-arrestin 1/2 and GLP-1R-LgBit assessed as beta-arrestin-2 recruitment measured after 5 mins by bioluminescence based NanoBiT assay; assay type: functional, cell-based
[20] = Half-life in Sprague-Dawley rat at 5 mg/kg, po measured upto 24 hrs by LC-MS/MS analysis; assay type: ADME, organism-based; settings: in vivo
Mus musculus [21] = assay: In vivo agonist activity at GLP-1R in C57BL/6J mouse with human GLP-1R knock-in assessed as reduction in blood glucose level at 1 mg/kg, po pre-treated with compound for 1 hrs followed by glucose administration and measured upto 90 mins by Oral Glucose Tolerance Test; assay type: functional, organism-based; settings: time <= 150.0 min
[22] = Apparent permeability across apical to basolateral side in human Caco-2 cells at 10 uM measured after 95 mins by LC-MS/MS analysis; assay type: ADME, cell-based
[23] = Cmax in Sprague-Dawley rat at 5 mg/kg, po measured upto 24 hrs by LC-MS/MS analysis; assay type: ADME, organism-based; design: time < 24 hrs, dose 5 mg/kg, route po; settings: in vivo
[24] = Tmax in Sprague-Dawley rat at 5 mg/kg, po measured upto 24 hrs by LC-MS/MS analysis; assay type: ADME, organism-based; settings: in vivo
[25] = target: T2, Glucagon-like peptide 1 receptor; assay: Partial agonist activity at N-terminal HA-tagged human GLP-1R expressed in HEK293 cells co-expressing Smbit-beta-arrestin 1/2 and GLP-1R-LgBit assessed as beta-arrestin-2 recruitment measured after 5 mins by bioluminescence based NanoBiT assay; assay type: functional, cell-based
[26] = Stability in human liver microsomes assessed as intrinsic clearance at 1 uM measured upto 60 mins in the presence of NADPH by LC-MS/MS analysis; assay type: ADME, Microsome; settings: 1 h

T2 sequence (P43220 whole entry): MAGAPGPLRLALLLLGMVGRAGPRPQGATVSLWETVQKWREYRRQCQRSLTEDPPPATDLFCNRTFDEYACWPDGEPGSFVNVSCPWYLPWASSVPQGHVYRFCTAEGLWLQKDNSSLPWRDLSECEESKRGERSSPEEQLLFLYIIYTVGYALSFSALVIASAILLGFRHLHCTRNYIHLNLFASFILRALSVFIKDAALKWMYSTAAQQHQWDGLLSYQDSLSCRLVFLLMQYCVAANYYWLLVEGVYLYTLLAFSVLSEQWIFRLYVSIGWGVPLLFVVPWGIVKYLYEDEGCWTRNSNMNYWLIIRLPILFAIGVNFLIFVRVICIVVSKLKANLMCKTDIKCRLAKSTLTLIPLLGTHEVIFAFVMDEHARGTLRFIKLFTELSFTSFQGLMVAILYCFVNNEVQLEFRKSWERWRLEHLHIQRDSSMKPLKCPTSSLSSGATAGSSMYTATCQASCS
Voltage-gated inwardly rectifying potassium channel KCNH2, sequence (Q12809 whole entry): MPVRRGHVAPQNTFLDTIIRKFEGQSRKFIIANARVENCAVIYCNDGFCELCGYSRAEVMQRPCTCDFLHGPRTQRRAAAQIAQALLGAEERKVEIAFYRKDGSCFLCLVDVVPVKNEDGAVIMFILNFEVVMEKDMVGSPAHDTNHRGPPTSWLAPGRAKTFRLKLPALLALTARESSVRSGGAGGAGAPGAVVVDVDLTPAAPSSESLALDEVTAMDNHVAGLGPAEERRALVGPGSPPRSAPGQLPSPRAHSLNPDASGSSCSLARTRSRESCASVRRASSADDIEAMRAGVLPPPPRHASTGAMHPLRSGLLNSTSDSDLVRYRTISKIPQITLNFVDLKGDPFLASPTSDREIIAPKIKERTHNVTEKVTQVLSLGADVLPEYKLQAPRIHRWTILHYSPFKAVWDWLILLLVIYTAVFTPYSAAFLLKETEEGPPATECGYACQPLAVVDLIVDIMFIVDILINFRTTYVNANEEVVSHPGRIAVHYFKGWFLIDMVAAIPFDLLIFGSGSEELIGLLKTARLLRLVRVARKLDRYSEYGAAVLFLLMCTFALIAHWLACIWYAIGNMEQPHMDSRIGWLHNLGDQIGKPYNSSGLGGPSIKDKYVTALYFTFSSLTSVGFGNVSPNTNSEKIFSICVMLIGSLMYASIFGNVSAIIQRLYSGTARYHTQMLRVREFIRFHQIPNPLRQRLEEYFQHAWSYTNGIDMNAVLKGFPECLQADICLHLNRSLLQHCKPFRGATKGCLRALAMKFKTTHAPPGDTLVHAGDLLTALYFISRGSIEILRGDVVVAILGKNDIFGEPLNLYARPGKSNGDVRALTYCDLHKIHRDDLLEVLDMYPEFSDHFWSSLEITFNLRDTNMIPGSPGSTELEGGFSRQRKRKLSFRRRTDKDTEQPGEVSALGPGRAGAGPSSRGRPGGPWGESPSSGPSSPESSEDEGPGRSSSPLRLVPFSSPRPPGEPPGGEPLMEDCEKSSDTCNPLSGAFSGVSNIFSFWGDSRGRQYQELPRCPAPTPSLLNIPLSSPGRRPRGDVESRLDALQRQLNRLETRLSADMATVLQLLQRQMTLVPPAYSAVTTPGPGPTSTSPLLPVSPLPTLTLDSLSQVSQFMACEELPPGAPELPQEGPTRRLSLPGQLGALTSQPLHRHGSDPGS
hERG (KCNH2), sequence (Q12809 whole entry): as above
Glucagon receptor (Homo sapiens), sequence (P47871 whole entry): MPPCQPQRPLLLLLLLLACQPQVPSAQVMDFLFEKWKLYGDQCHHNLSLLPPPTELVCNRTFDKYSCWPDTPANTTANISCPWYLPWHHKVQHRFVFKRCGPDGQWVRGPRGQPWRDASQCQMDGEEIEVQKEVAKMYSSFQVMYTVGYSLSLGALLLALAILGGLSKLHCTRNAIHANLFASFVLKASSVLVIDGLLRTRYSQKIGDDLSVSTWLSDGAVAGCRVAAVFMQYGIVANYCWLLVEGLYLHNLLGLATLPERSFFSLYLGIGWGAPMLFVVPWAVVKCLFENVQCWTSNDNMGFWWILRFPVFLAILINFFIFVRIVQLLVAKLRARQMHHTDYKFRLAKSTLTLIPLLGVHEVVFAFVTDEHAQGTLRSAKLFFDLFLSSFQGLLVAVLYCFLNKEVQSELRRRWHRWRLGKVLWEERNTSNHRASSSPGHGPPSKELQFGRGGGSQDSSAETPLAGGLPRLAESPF

## COc1cc(C(F)(F)F)ccc1COc1cccc(N2C=NN(Cc3nc4c(F)cc(C(=O)O)cc4n3C[C@@H]3CCO3)CC2)n1
[1]
  Activity: inactive
[2]
  half-life at 1 µM: 75 min
[3]
  Activity: inactive
[4]
  CLH: 27 mL/min/g
[5]
  EC50: 175 nM
[6]
  CLH: 28 mL/min/g
[7]
  half-life at 1 µM: 77 min
Mus musculus [8]
  Activity: Active
[9]
  concentration at 4 h: 35 ng/mL
[10]
  Ratio EC50: 10
[11]
  IC50: > 40 µM
[12]
  AUC(0-t) at 24 h: 70 ng·h/mL
[13]
  half-life at 1 µM: 172 min
[14]
  EC50: 6 pM
[15]
  Ratio EC50: 10
Mus musculus [16]
  Activity: Active
[17]
  concentration at 1 h: 132 ng/mL
hERG (KCNH2)
  inhibition at 40 µM: 20%
[18]
  EC50: 168 nM
[19]
  Ratio EC50: 10
[20]
  half-life: 63 min
Mus musculus [21]
  Activity: Active
[22]
  Papp A→B at 1.583 h, 10 µM: 0.57 ×10⁻⁶ cm/s
[23]
  Cmax: 130 ng/mL
[24]
  Tmax: 15 min
[25]
  EC50: 136 nM
[26]
  CLH: 12 mL/min/g
